The source of these data is patent US8629328B2 (Monsanto Technology LLC, priority 2006, dated 2014).

Data set [1] relates to transgenic soybean plants with DMO-encoding polynucleotide (Events 1-4). As to the kind of experiment: Greenhouse, post-V3 applications of different auxin-like herbicides, visual % injury. Type of data set: in vivo. As to conditions: for tolerance of DMO polynucleotide containing soybean: post-V3 application. The protocol:
(§1) This was carried out by applying various concentrations of commercially available formulations of other auxin-like herbicides such as 2,4-D (Helena, Collierville, Tenn.), MCPA (Agriliance, St. Paul, Minn.), triclopyr (GARLON 3A; Dow Elanco, Indianapolis, Ind.), clopyralid (STINGER; Dow Elanco, Indianapolis, Ind.), picloram (TORDON 22K; Dow Elanco, Indianapolis, Ind.), or Banvel or CLARITY (BASF, Raleigh, N.C.) to DMO containing plant tissues or plants.
(§2) Transgenic soybean plants were obtained by Agrobacterium-mediated transformation of soybean explants with a DMO-encoding polynucleotide as described above for the events designated Events 1-4. A non-transgenic line was used as a control.
(§3) Applications were made when plants had reached V-3 stage.
(§4) Data were collected using a palm top computer and analyzed using standard statistical methods. The results shown in Table 10 clearly indicate tolerance of transgenic soybean to other auxin-like herbicides such as 2,4-D and MCPA relative to the non-transgenic line.

The test system of data set [2] is non-transgenic soybean plants. The data set is described as above. Type of data set: in vivo. The protocol:
as §1, §2, §3, §4

A further data set relates to MARESTAIL (KY) Resistant. As to the kind of experiment: Control of marestail by dicamba or glyphosate, treated at rosette leaf stage. Type of data set: in vivo, Conyza canadensis. As to conditions: glyphosate formulation 2100 g/ha. The source says: (§5) Marestail is one of the major weeds in a crop field. Marestail is effectively controlled by glyphosate, but the development of methods for controlling this common weed with other herbicides is important to minimize opportunities for herbicide tolerance to develop.

The next data set relates to MARESTAIL (CA) Resistant. Described as above. Type of data set: in vivo, Conyza canadensis. As to conditions: glyphosate formulation 2100 g/ha.
Description: as §5

The test system of another data set is Marestail Resistant (KY). As to the kind of experiment: Dicamba, glyphosate and their combination on marestail. It counts as in vivo, Conyza canadensis. As to conditions: glyphosate formulation 200 g/ha.

`O=C(O)COc1ccc(Cl)cc1Cl` [2,4-D, (2,4-dichlorophenoxy)acetic acid]: the “% injury at 21 DAT” value is 58.3% in data set [1] (Event 1, 280 g ae/ha post-V3); 75.0% in data set [1] (Event 1, 561 g ae/ha post-V3); 100.0% in data set [1] (Event 1, 1120 g ae/ha post-V3); 64.2% in data set [1] (Event 2, 280 g ae/ha post-V3); 94.7% in data set [1] (Event 2, 561 g ae/ha post-V3); 100.0% in data set [1] (Event 2, 1120 g ae/ha post-V3). The “% injury at 21 DAT” value amounted to 40.0% in data set [1] (Event 3, 280 g ae/ha post-V3); 85.0% in data set [1] (Event 3, 561 g ae/ha post-V3); 100.0% in data set [1] (Event 3, 1120 g ae/ha post-V3); 45.8% in data set [1] (Event 4, 280 g ae/ha post-V3); 84.2% in data set [1] (Event 4, 561 g ae/ha post-V3); 100.0% in data set [1] (Event 4, 1120 g ae/ha post-V3). Besides, the entries for the “% injury at 21 DAT” value in data set [2] (280 g ae/ha post-V3), in data set [2] (561 g ae/ha post-V3) and in data set [2] (1120 g ae/ha post-V3) were 86.8%, 100.0% and 100.0%, respectively. For the same compound, in data set [1], the “tolerance of DMO polynucleotide containing soybean” value is “tolerant to low levels”.

Take `O=C(O)c1nc(Cl)ccc1Cl` [Clopyralid, 3,6-dichloro-2-pyridinecarboxylic acid]: the “% injury at 14 DAT” value in data set [1] (Event 1, 280 g ae/ha post-V3) turned out to be 99.2%; in data set [1] (Event 1, 561 g ae/ha post-V3) it was 100.0%; in data set [1] (Event 1, 1120 g ae/ha post-V3), 100.0%; in data set [1] (Event 2, 280 g ae/ha post-V3) it was 98.2%; in data set [1] (Event 2, 561 g ae/ha post-V3), 99.7%; in data set [1] (Event 2, 1120 g ae/ha post-V3), 100.0%. Moreover, the “% injury at 14 DAT” value in data set [1] (Event 3, 280 g ae/ha post-V3) came out at 99.3%; in data set [1] (Event 3, 561 g ae/ha post-V3), 100.0%; in data set [1] (Event 3, 1120 g ae/ha post-V3) it was 100.0%; in data set [1] (Event 4, 280 g ae/ha post-V3), 99.7%; in data set [1] (Event 4, 561 g ae/ha post-V3), 100.0%; in data set [1] (Event 4, 1120 g ae/ha post-V3), 100.0%. The “% injury at 14 DAT” value is recorded as 99.3% in data set [2] (280 g ae/ha post-V3), 100.0% in data set [2] (561 g ae/ha post-V3) and 100.0% in data set [2] (1120 g ae/ha post-V3).

Turning to `Cc1cc(Cl)ccc1OCC(=O)O` [MCPA, (4-chloro-2-methylphenoxy)acetic acid], the “% injury at 21 DAT” value in data set [1] (Event 1, 280 g ae/ha post-V3) is given as 72.5%; in data set [1] (Event 1, 561 g ae/ha post-V3), 99.3%; in data set [1] (Event 1, 1120 g ae/ha post-V3) it was 100.0%; in data set [1] (Event 2, 280 g ae/ha post-V3) it was 55.0%; in data set [1] (Event 2, 561 g ae/ha post-V3), 95.0%; in data set [1] (Event 2, 1120 g ae/ha post-V3) it was 99.7%. Moreover, the “% injury at 21 DAT” value in data set [1] (Event 3, 280 g ae/ha post-V3) is listed as 55.0%; in data set [1] (Event 3, 561 g ae/ha post-V3) it was 95.8%; in data set [1] (Event 3, 1120 g ae/ha post-V3), 100.0%; in data set [1] (Event 4, 280 g ae/ha post-V3), 88.3%; in data set [1] (Event 4, 561 g ae/ha post-V3) it was 98.8%; in data set [1] (Event 4, 1120 g ae/ha post-V3), 100.0%. Besides, the “% injury at 21 DAT” value was found to be 93.0% in data set [2] (280 g ae/ha post-V3), 98.3% in data set [2] (561 g ae/ha post-V3) and 100.0% in data set [2] (1120 g ae/ha post-V3). Moreover, the “tolerance of DMO polynucleotide containing soybean” value in data set [1] is listed as “tolerant to low levels”.

For `Nc1c(Cl)c(Cl)nc(C(=O)O)c1Cl` [Picloram, 4-amino-3,5,6-trichloro-2-pyridinecarboxylic acid], the “% injury at 14 DAT” value was 99.7% in data set [1] (Event 1, 280 g ae/ha post-V3); 100.0% in data set [1] (Event 1, 561 g ae/ha post-V3); 100.0% in data set [1] (Event 1, 1120 g ae/ha post-V3); 99.3% in data set [1] (Event 2, 280 g ae/ha post-V3); 100.0% in data set [1] (Event 2, 561 g ae/ha post-V3); 100.0% in data set [1] (Event 2, 1120 g ae/ha post-V3). The “% injury at 14 DAT” value in data set [1] (Event 3, 280 g ae/ha post-V3) is 99.3%; in data set [1] (Event 3, 561 g ae/ha post-V3), 99.7%; in data set [1] (Event 3, 1120 g ae/ha post-V3) it was 100.0%; in data set [1] (Event 4, 280 g ae/ha post-V3), 99.3%; in data set [1] (Event 4, 561 g ae/ha post-V3), 100.0%; in data set [1] (Event 4, 1120 g ae/ha post-V3), 100.0%. Also, the “% injury at 14 DAT” value in data set [2] (280 g ae/ha post-V3) is listed as 99.3%; in data set [2] (561 g ae/ha post-V3) it was 100.0%; in data set [2] (1120 g ae/ha post-V3), 100.0%.

Consider `O=C(O)CNCP(=O)(O)O` [glyphosate, N-phosphonomethylglycine], for which the entries for the “% Injury (21 DAT)” value in the data set on MARESTAIL (KY) Resistant and in the data set with MARESTAIL (CA) Resistant were “about 91%” and “about 77%”, respectively. Moreover, in the data set on Marestail Resistant (KY), the “% Injury (18 DAT)” value amounted to 6%.
